Laboratory results from US11505536B2, “Dihydroorotate dehydrogenase inhibitors” (Janssen Biotech, Inc., priority 2019, dated 2022).

Tests used:
human DHODH = human DHODH (Homo sapiens (Human), UniProt Q02127); experiment: DHODH Enzymatic Assay; type: biochemical; conditions: purified human DHODH, DCIP absorbance, end-point mode; read-out: hDHODH IC50
Procedure: The following assay is referred to herein as the “DHODH Enzymatic Assay.” To detect DHODH enzyme activities, dichloroindophenol (DCIP) is added as the final electron acceptor in the assay. DCIP can accept electrons from the reduced coenzyme Q generated in the assay, or from dihydroorotate (DHO) via FMN by binding presumably to the ubiquinone pocket. DCIP solutions are blue, with an intense absorbance around 600 nm, but becomes colorless upon reduction (J. Biol. Chem. (1986) 261, 11386). The assay buffer contained […], pH 7.5, 150 mM NaCl, 0.5 mM EDTA, and 0.1% Triton X-100 in MilliQ water. Substrate consisting of 20 mM DHO, 5 mM CoQ6, and 1 mM DCIP in assay buffer, initiates the reaction. The assay is run in end-point mode by quenching the reaction with the potent DHODH inhibitor brequinar. Absorbance measurements were obtained using the BMG Phera Star plate-reading spectrophotomer. Purified human DHODH was purchased from Proteros (cat. No. PR-0044). Chemicals were purchased from Sigma-Aldrich, Teknova, and Avanti Polar Lipids. Liquid handling was performed using Labcyte Echo and Formulatrix Tempest.

[1] = tested on: MOLM-13 cells (human acute myeloid leukemia cells); experiment: MOLM-13 Cellular Assay; type: cell-based; conditions: Homo sapiens, MOLM-13, 72 h, 72 hours exposure, cell viability by CellTiter-Glo
Procedure: The following assay is referred to herein as the “MOLM-13 Cellular Assay.” MOLM-13 cells (human acute myeloid leukemia cells) were obtained from DSMZ and were maintained in RPMI 1640+Glutamax+25 mM HEPES (Invitrogen, catalog number 72400) supplemented with 10% heat inactivated fetal bovine serum (FBS; Invitrogen, catalog number 16140). The day prior to assay set-up, cells were pelleted, resuspended in fresh media, counted, and cells were plated at 0.4×10^6 cell/mL in a T150 flask. On the day of the assay, cells were pelleted, resuspend in fresh media, counted and seeded at 5,000 cells/well in white opaque 96-well tissue culture treated microplates (Perkin Elmer, catalog number 6005680). Cells were exposed to different concentrations of test compounds at 37° C., 5% CO2 for 72 hours immediately after seeding. Cell viability was acquired on a Perkin Elmer Envision 2104 multilabel reader using the CellTiter-Glo assay (Promega) according to the manufacturer's instructions.

Chain of human DHODH (Q02127 whole entry): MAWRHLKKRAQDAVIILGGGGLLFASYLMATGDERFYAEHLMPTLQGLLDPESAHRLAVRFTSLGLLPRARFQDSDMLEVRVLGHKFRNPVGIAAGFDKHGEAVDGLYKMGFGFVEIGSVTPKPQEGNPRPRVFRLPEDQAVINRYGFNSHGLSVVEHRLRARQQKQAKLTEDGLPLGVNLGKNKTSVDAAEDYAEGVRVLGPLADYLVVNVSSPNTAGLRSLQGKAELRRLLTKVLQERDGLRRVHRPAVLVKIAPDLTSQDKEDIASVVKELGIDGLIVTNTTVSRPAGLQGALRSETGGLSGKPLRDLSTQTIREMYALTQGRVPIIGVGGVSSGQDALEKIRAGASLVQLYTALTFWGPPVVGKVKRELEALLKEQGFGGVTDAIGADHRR

| Compound | IC50 (human DHODH) [nM] | IC50 [1] [nM] |
| --- | --- | --- |
| CCn1c(CO)nn(-c2cc3c(C(C)C)cn([C@@H]4CCC[C@H]4C)c(=O)c3cc2F)c1=O (stereo in doubt) [Example 123, 6-(4-Ethyl-3-(hydroxymethyl)-5-oxo-4,5-dihydro-1H-1,2,4-triazol-1-yl)-7-fluoro-4-isopropyl-2-((1R*,2R*)-2-methylcyclopentyl)isoquinolin-1(2H)-one] | 16.8 | 9 |
| CCn1c(CO)nn(-c2cc3c(C(C)C)cn([C@H]4CCC[C@@H]4C)c(=O)c3cc2F)c1=O (stereo in doubt) [Example 124, 6-(4-Ethyl-3-(hydroxymethyl)-5-oxo-4,5-dihydro-1H-1,2,4-triazol-1-yl)-7-fluoro-4-isopropyl-2-((1S*,2S*)-2-methylcyclopentyl)isoquinolin-1(2H)-one] | 1.36 | 0.9 |
| CCn1c(CO)nn(-c2cc3c(C(C)C)cn([C@@H]4CCC[C@@H]4C)c(=O)c3cc2F)c1=O (stereo in doubt) [Example 125, 6-(4-Ethyl-3-(hydroxymethyl)-5-oxo-4,5-dihydro-1H-1,2,4-triazol-1-yl)-7-fluoro-4-isopropyl-2((1R*,2S*)-2-methylcyclopentyl)isoquinolin-1(2H)-one] | 15.5 | 6 |
| CCn1c(CO)nn(-c2cc3c(C(C)C)cn([C@H]4CCC[C@H]4C)c(=O)c3cc2F)c1=O (stereo in doubt) [Example 126, 6-(4-Ethyl-3-(hydroxymethyl)-5-oxo-4,5-dihydro-1H-1,2,4-triazol-1-yl)-7-fluoro-4-isopropyl-2-((1S*,2R*)-2-methylcyclopentyl)isoquinolin-1(2H)-one] | 1.32 | 1 |
| C=C(C)c1cn(-c2cccc(F)c2)c(=O)c2ccc(-n3nc(CO)n(CC)c3=O)cc12 [Example 1, 6-(4-Ethyl-3-(hydroxymethyl)-5-oxo-4,5-dihydro-1H-1,2,4-triazol-1-yl)-2-(3-fluorophenyl)-4-(prop-1-en-2-yl)isoquinolin-1(2H)-one] | 9.89 | 6 |
| CCn1c(CO)nn(-c2ccc3c(=O)n(-c4cccc(F)c4)cc(C(C)C)c3c2)c1=O [Example 2, 6-(4-Ethyl-3-(hydroxymethyl)-5-oxo-4,5-dihydro-1H-1,2,4-triazol-1-yl)-2-(3-fluorophenyl)-4-isopropylisoquinolin-1(2H)-one] | 75.9 | 40 |
| CCn1c(CO)nn(-c2ccc3c(=O)n(-c4c(F)cccc4Cl)cc(C(C)C)c3c2)c1=O [Example 3, 2-(2-Chloro-6-fluorophenyl)-6-(4-ethyl-3-(hydroxymethyl)-5-oxo-4,5-dihydro-1H-1,2,4-triazol-1-yl)-4-isopropylisoquinolin-1(2H)-one] | 3.46 | 2 |
| CCn1c(CO)nn(-c2ccc3c(=O)n(-c4cccc(F)c4)cc(-c4ccccc4)c3c2)c1=O [Example 4, 6-(4-Ethyl-3-(hydroxymethyl)-5-oxo-4,5-dihydro-1H-1,2,4-triazol-1-yl)-2-(3-fluorophenyl)-4-phenylisoquinolin-1(2H)-one] | 177 | 100 |
| C=C(C)c1cn(-c2c(F)cccc2Cl)c(=O)c2ccc(-n3nc(CO)n(CC)c3=O)cc12 [Example 5, 2-(2-Chloro-6-fluorophenyl)-6-(4-ethyl-3-(hydroxymethyl)-5-oxo-4,5-dihydro-1H-1,2,4-triazol-1-yl)-4-(prop-1-en-2-yl)isoquinolin-1(2H)-one] | 1.29 | 0.9 |
| C=C(c1cn(-c2c(F)cccc2Cl)c(=O)c2ccc(-n3nc(CO)n(CC)c3=O)cc12)C(F)(F)F [Example 6, 2-(2-Chloro-6-fluorophenyl)-6-(4-ethyl-3-(hydroxymethyl)-5-oxo-4,5-dihydro-1H-1,2,4-triazol-1-yl)-4-(3,3,3-trifluoroprop-1-en-2-yl)isoquinolin-1(2H)-one] | 1.94 | 1 |
